Reference: US20060165612A1, “Compositions for hygienic hand disinfection and disinfectant handwashing” (priority 2005, published 2006)

solubility in water: 0.1 % by weight
SMILES: CCCCC(CC)COCC(O)CO (stereo not shown) [1-(2-ethylhexyl)glycerol ether, 1-(2-Ethylhexyl)glycerol ether]
